Data: BigSolDB 2.1

O=C(O)CCCC(=O)O
Conditions | solubility (mole fraction)
in acetic acid, 292.75 K | 0.162
in acetic acid, 297.84 K | 0.183
in acetic acid, 301.3 K | 0.203
in acetic acid, 304.47 K | 0.221
in acetic acid, 307.28 K | 0.241
in acetic acid, 310.19 K | 0.257
in acetic acid, 313.64 K | 0.28
in acetic acid, 316.5 K | 0.302
in acetic acid, 319.05 K | 0.323
in acetic acid, 321.38 K | 0.345
in acetic acid, 325.45 K | 0.373
in acetic acid, 327.38 K | 0.399
in acetic acid, 332.97 K | 0.436
in acetic acid, 335.25 K | 0.478
in acetic acid, 338.05 K | 0.514
in acetic acid, 341.94 K | 0.553
in acetic acid, 344.21 K | 0.585
in acetic acid, 347.24 K | 0.621
in acetic acid, 349.88 K | 0.651
in acetic acid, 353.36 K | 0.712
in cyclohexanol, 299.75 K | 0.205
in cyclohexanol, 302.7 K | 0.219
in cyclohexanol, 305.85 K | 0.234
in cyclohexanol, 308.6 K | 0.25
in cyclohexanol, 313.19 K | 0.271
in cyclohexanol, 316 K | 0.288
in cyclohexanol, 318.55 K | 0.312
in cyclohexanol, 320.55 K | 0.33
in cyclohexanol, 325.15 K | 0.366
in cyclohexanol, 326.5 K | 0.371
in cyclohexanol, 332.55 K | 0.428
in cyclohexanol, 334.9 K | 0.455
in cyclohexanol, 336.3 K | 0.477
in cyclohexanol, 339.75 K | 0.511
in cyclohexanol, 342.15 K | 0.545
in cyclohexanol, 344.8 K | 0.571
in cyclohexanol, 347.19 K | 0.622
in cyclohexanol, 350.05 K | 0.66
in cyclohexanol, 351.93 K | 0.693
in cyclohexanol, 352.48 K | 0.719
in cyclohexanol, 352.95 K | 0.748
in cyclohexanone, 294 K | 0.161
in cyclohexanone, 299.7 K | 0.189
in cyclohexanone, 304.5 K | 0.213
in cyclohexanone, 308.05 K | 0.241
in cyclohexanone, 311.94 K | 0.264
in cyclohexanone, 314.15 K | 0.283
in cyclohexanone, 317.54 K | 0.307
in cyclohexanone, 320.3 K | 0.334
in cyclohexanone, 325.05 K | 0.366
in cyclohexanone, 326.95 K | 0.392
in cyclohexanone, 330.5 K | 0.428
in cyclohexanone, 333.81 K | 0.458
in cyclohexanone, 335.23 K | 0.478
in cyclohexanone, 338.35 K | 0.513
in cyclohexanone, 342.65 K | 0.557
in cyclohexanone, 346.8 K | 0.598
in cyclohexanone, 347.65 K | 0.627
in cyclohexanone, 349.7 K | 0.655
in cyclohexanone, 351.5 K | 0.679
in cyclohexanone, 353.65 K | 0.705
